The assay addresses T1, human 5-HT2B receptor (Homo sapiens, UniProt P41595).
T1 construct: expressed in transfected cells; host or cells: CHO cells
Nature of the assay: Antagonism of human serotonin 5-HT2B, IP1 functional assay (HTRF) in transfected CHO cells. Format: cell-based. The settings on record: inhibition of IP1 production induced by 30 nM 5-HT. As for the experimental part: The human 5-HT2B receptor expressed in transfected CHO cells is used to determine antagonistic effects by measuring the effects on agonist-induced inositol monophosphate (IP1) production using the HTRF® detection method (Porter et al., 1999, Brit. J. Pharmacol., 128: 13-20; Trinquet et al., 2006, Analytical Biochemistry 358, 126-135) The CHO cells can be suspended in a buffer containing 10 mM Hepes/NaOH (pH 7.4), 4.2 mM KCl, 146 mM NaCl, 1 mM CaCl2, 0.5 mM MgCl2, 5.5 mM glucose and 50 mM LiCl, then distributed in microtiter plates at a density of about 20000 cells/well and preincubated for 5 min at room temperature in the presence of buffer (basal control), test compound, i.e. reference samples and inventive mixture of retinyl acetate (“retAc”) (see Table 1) or a very potent known reference antagonist SB-206553. Thereafter, the reference agonist 5-HT (serotonin) is added at a final concentration of 30 nM. […] Following 30 min incubation at 37° C., the cells are lysed and the fluorescence acceptor (D2-labeled IP1) and fluorescence donor (anti-IP1 antibody labeled with europium cryptate) are added. After 60 min at room temperature, the fluorescence transfer is measured at wavelengths Ex=337 nm and Em=620 and 665 nm using a microplate reader (Envision, Perkin Elmer). The IP1 concentration can be determined by dividing the signal measured at 665 nm by that measured at 620 nm (ratio). The results are expressed as a percent inhibition of the control response to 30 nM 5-HT. Mean values, standard deviation are calculated and used in a dose response model to calculate the IC50 values.
The standard reference antagonist SB-206553 is tested in each experiment at several concentrations to generate a concentration-response curve. The dose response curve is used to calculate the IC50 value. The same procedure is done for RetAc mix and the Reference RetAc to determine the IC50 values.
For orientation: TR-FRET usually uses a lanthanide donor and a delayed reading to cut background.

pIC50: −log10 of the molar value.

T1 sequence (P41595 whole entry): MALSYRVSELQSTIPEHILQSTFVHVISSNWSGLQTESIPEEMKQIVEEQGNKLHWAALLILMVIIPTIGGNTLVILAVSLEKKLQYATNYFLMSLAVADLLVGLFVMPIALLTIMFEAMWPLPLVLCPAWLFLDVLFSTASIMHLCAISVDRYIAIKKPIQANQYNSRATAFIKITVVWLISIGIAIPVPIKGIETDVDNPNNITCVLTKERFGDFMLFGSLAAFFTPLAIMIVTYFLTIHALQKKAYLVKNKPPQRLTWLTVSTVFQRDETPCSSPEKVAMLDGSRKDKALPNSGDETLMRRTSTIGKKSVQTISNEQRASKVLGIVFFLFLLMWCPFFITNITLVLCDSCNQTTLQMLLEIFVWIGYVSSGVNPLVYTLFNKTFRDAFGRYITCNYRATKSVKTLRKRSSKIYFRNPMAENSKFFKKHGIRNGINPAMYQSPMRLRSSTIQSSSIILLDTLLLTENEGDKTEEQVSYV

Regarding `CC(=O)OC/C=C(C)/C=C/C=C(C)/C=C/C1=C(C)CCCC1(C)C` [Reference retAc, retinyl acetate], the pIC50 is 4.92. `CC(=O)OC/C=C(C)/C=C/C=C(C)/C=C/C1=C(C)CCCC1(C)C` [RetAc mix, retinyl acetate]: the pIC50 was 5.28. `Cn1ccc2cc3c(cc21)CCN3C(=O)Nc1cccnc1` [SB-206553] gave a pIC50 of 7.59.

By pIC50 is commonly meant −log10 of the IC50, conventionally taken in molar units.

The values are drawn from patent US20250032439A1, “NOVEL COMPOSITIONS” (DSM IP ASSETS B.V., priority 2021, published 2025).
